Assay results reported in patent US20130202545A1, “Stablised Polyphenol Derivatives, Process for Their Manufacture, and Uses Thereof” (BERKEM S.A., priority 2010, published 2013).

System: explants of human skin
Test: Anti-lipoperoxidant activity: MDA level in UV-irradiated human skin explants
Format: cell-based
Text: Oxygenated free radicals are produced in large quantities on the skin as a result of UV irradiation. These free radical species cause various forms of degradation to cellular components, and in particular, to membrane lipids. The latter are transformed into various hydroperoxide derivatives, such as for example malonyldialdehyde (MDA), and 4-hydrononenal (4-HNE). The determination of the amount of MDA in skin tissues is thus a good indicator of the production of oxygenated free radicals and peroxidation of membrane lipids. A comparison of the levels of MDA between treated and non-treated subjects therefore indicates whether the product applied has anti-lipoperoxidant activity. The model used for the experiments is one of human skin explants which are maintained in survival mode at 37° C., a humid atmosphere and 5% CO2. The skin explants are divided into three positive control batch treated with vitamin E (2 mg per explant) The products to be tested are dissolved at a concentration of 2% Vaseline oil. This solution is applied topically to the skin explants at a rate of one 30 micro-litre application per explant per day for 5 days. […] Levels of MDA (expressed in pmoles of MDA/ml of medium) in the explants are measured for both the treated and untreated batches. […] Antiradical activity was determined using the same method described in example 17. […]

Vitamin E was tested. Which “% Reduction in MDA” value (Example 21, etherified (silyl ether) OPC, same method as the earlier MDA example) did it give?
Its value is 11%.

What about the “% Reduction in MDA” value (products 2% in Vaseline oil, 30 micro-litre per explant per day for 5 days (vitamin E 2 mg per explant), UV A and UV B on day 5, treated vs untreated explants) of the same substance?
The value was 11%.
